Test results as given in ChEMBL document CHEMBL1140827, “From rigid cyclic templates to conformationally stabilized acyclic scaffolds. Part II: Acyclic replacements for the (3S)-3-benzylpiperidine in a series of potent CCR3 antagonists” (Bioorg Med Chem Lett, 2008).

Columns and labels:
[1] = molecular target: T1, C-C chemokine receptor type 3 (Homo sapiens, UniProt P51677); test: Displacement of [125I] eotaxin from human CCR3 receptor in CHO cells; type: cell-based
T1 sequence (P51677 whole entry): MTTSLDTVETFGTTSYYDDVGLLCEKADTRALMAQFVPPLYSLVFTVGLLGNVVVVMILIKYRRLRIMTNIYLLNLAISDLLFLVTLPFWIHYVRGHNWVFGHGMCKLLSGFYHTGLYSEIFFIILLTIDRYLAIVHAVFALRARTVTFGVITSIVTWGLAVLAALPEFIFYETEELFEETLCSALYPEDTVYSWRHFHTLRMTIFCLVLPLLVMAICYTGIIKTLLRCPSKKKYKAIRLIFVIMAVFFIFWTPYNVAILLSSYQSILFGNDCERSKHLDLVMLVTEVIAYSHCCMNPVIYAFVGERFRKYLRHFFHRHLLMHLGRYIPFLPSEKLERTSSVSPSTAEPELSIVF

[2] = molecular target: T2, C-C chemokine receptor type 3 (Homo sapiens) (UniProt P51677); test: Antagonist activity at human CCR3 receptor assessed as inhibition of chemotaxis in eosinophil at 0.3 nM; type: functional; set-up: scale not given: the % may be the effect or the level left
T2 sequence (whole entry): T1 sequence (P51677 whole entry)

[3] = molecular target: T2, C-C chemokine receptor type 3 (Homo sapiens); test: Antagonist activity at human CCR3 receptor assessed as inhibition of chemotaxis in eosinophil at 30 nM; type: functional; set-up: scale not given: the % may be the effect or the level left
[4] = molecular target: T2, C-C chemokine receptor type 3 (Homo sapiens); test: Antagonist activity at human CCR3 receptor assessed as inhibition of chemotaxis in eosinophil at 3 nM; type: functional; set-up: scale not given: the % may be the effect or the level left
[5] = molecular target: T2, C-C chemokine receptor type 3 (Homo sapiens); test: Antagonist activity at human CCR3 receptor assessed as inhibition of chemotaxis in eosinophil at 0.03 nM; type: functional; set-up: scale not given: the % may be the effect or the level left
[6] = molecular target: C-C chemokine receptor type 3 (Homo sapiens, UniProt P51677); test: Displacement of [125I] eotaxin from human CCR3/CCR2 chimeric receptor in CHO cells; type: cell-based

With `C[C@@H](NC(=O)Nc1cccc(-c2nnnn2C)c1)[C@@H](O)CN(C)[C@@H](C)[C@H](O)c1ccccc1` the IC50 [1] was 5.7 nM.
`CCc1cc(NC(=O)N[C@H](C)[C@@H](O)CN(CCCc2ccc(F)cc2)CC23CC4CC(CC(C4)C2)C3)cc(-c2nnnn2C)c1` gave an IC50 [1] of 211 nM.
`CCN(CCCc1ccc(F)cc1)C[C@H](O)[C@@H](C)NC(=O)Nc1cccc(-c2nnnn2C)c1` gave an Activity [2] of 34% and an IC50 [1] of 0.2 nM.
In the case of `CN(CCCc1ccc(F)cc1)C[C@@H]1CCCC[C@H]1NC(=O)Nc1cccc(-c2nnnn2C)c1`, the IC50 [1] is reported as 0.6 nM.
With `CCc1cc(NC(=O)N[C@H](C)[C@@H](O)CNCCCc2ccc(F)cc2)cc(-c2nnnn2C)c1` the Activity [3] was 55%, the IC50 [1] was 0.3 nM and the Activity [4] was 42%.
With `CCc1cc(NC(=O)N[C@H](C)[C@@H](O)CN(CCCc2ccc(F)cc2)C2CC2)cc(-c2nnnn2C)c1` the IC50 [1] was 0.6 nM.
Work on `CCc1cc(NC(=O)N[C@H](C)[C@@H](O)CN(CCCc2ccc(F)cc2)C2CCCCC2)cc(-c2nnnn2C)c1` yielded an Activity [3] of 58%, an IC50 [1] of 3.2 nM and an Activity [4] of 0%.
`Cn1nnnc1-c1cccc(NC(=O)N[C@@H]2CCCC[C@H]2CNCCCc2ccc(F)cc2)c1` gave an IC50 [1] of 3.7 nM.
`CCc1cc(NC(=O)N[C@H](C)[C@@H](O)CN(CCCc2ccc(F)cc2)C(C)=O)cc(-c2nnnn2C)c1` showed an IC50 [1] of 6 nM.
In the case of `CCc1cc(NC(=O)N[C@H](C)[C@@H](O)CN(CC)[C@@H](C)CCc2ccc(F)cc2)cc(-c2nnnn2C)c1`, the IC50 [1] is reported as 0.2 nM.
In the case of `CCc1cc(NC(=O)N[C@H](C)[C@@H](O)CN(CCCc2ccc(F)cc2)CC2CC2)cc(-c2nnnn2C)c1`, the IC50 [1] is reported as 0.6 nM.
`C[C@@H](NC(=O)Nc1cccc(-c2nnnn2C)c1)[C@@H](O)CN(C)[C@@H](C)[C@@H](O)c1ccccc1` was tested, and the Activity [3] was 67% and the IC50 [1] was 0.4 nM.
`C[C@@H](NC(=O)Nc1cccc(-c2nnnn2C)c1)[C@@H](O)CN(CCCc1ccc(F)cc1)C1CCCCC1` showed an IC50 [1] of 2.5 nM.
`CCc1cc(NC(=O)N[C@H](C)[C@@H](O)CN(C)CCCc2ccc(F)cc2)cc(-c2nnnn2C)c1` was tested, and the IC50 [1] was 0.3 nM.
For `C[C@@H](NC(=O)Nc1cccc(-c2nnnn2C)c1)[C@@H](O)CN(C)CCCc1ccc(F)cc1`, the Activity [3] was 0% and the IC50 [1] was 0.4 nM.
`CCCN(CCCc1ccc(F)cc1)C[C@H](O)[C@@H](C)NC(=O)Nc1cccc(-c2nnnn2C)c1` showed an IC50 [1] of 0.2 nM and an Activity [4] of 43%.
In the case of `C[C@H]([C@H](O)c1ccccc1)N(C)C[C@H](O)[C@@H](C)NC(=O)Nc1cccc(-c2nnnn2C)c1`, the IC50 [1] is reported as 577 nM.
Compound `CCN(C[C@H](O)[C@@H](C)NC(=O)Nc1cccc(-c2nnnn2C)c1)[C@@H](C)CCc1ccc(F)cc1` has an IC50 [1] of 2.5 nM.
`CCc1cc(NC(=O)N[C@H](C)[C@@H](O)CN(CC)[C@@H](C)[C@@H](O)Cc2ccc(F)cc2)cc(-c2nnnn2C)c1` showed an IC50 [1] of 1.2 nM.
`CCN(C[C@H](O)[C@@H](C)NC(=O)Nc1cccc(-c2nnnn2C)c1)[C@@H](C)[C@@H](O)Cc1ccc(F)cc1` showed an IC50 [1] of 19 nM.
`C[C@@H](NC(=O)Nc1cccc(-c2nnnn2C)c1)[C@@H](O)CN(CCCc1ccc(F)cc1)C1CC1` showed an IC50 [1] of 0.4 nM.
For `CCc1cc(NC(=O)N[C@H](C)[C@@H](O)CN(CCCc2ccc(F)cc2)CC(F)(F)F)cc(-c2nnnn2C)c1`, the IC50 [1] was 9 nM.
Work on `CCN(C[C@H](O)[C@@H](C)NC(=O)Nc1cccc(-c2nnnn2C)c1)[C@@H](C)[C@H](O)Cc1ccc(F)cc1` yielded an IC50 [1] of 88 nM.
Compound `C[C@@H](NC(=O)Nc1cccc(-c2nnnn2C)c1)[C@@H](O)CN(CCCc1ccc(F)cc1)CC12CC3CC(CC(C3)C1)C2` has an IC50 [1] of 421 nM.
For `CCc1cc(NC(=O)N[C@H](C)[C@@H](O)CN(CC)[C@@H](C)[C@H](O)Cc2ccc(F)cc2)cc(-c2nnnn2C)c1`, the IC50 [1] was 3.4 nM.
Work on `CCc1cc(NC(=O)N[C@H](C)[C@@H](O)CN(C)[C@@H](C)[C@@H](O)c2ccccc2)cc(-c2nnnn2C)c1` yielded an IC50 [1] of 0.5 nM.
In the case of `CCc1cc(NC(=O)N[C@H](C)[C@@H](O)CN2CCC[C@@H](Cc3ccc(F)cc3)C2)cc(-c2nnnn2C)c1`, the IC50 [1] is reported as 1.8 nM.
`CCCN(CCCc1ccc(F)cc1)C[C@H](O)[C@@H](C)NC(=O)Nc1cc(CC)cc(-c2nnnn2C)c1` was tested, and the Activity [2] was 62%, the Activity [5] was 42% and the IC50 [1] was 0.5 nM.
`Cn1nnnc1-c1cccc(NC(=O)N[C@@H]2CCCC[C@H]2CN(CCCc2ccc(F)cc2)CC(F)(F)F)c1` showed an IC50 [1] of 60 nM.
`C[C@H]([C@@H](O)c1ccccc1)N(C)C[C@H](O)[C@@H](C)NC(=O)Nc1cccc(-c2nnnn2C)c1` was tested, and the IC50 [1] was 238 nM.
Work on `C[C@@H](NC(=O)Nc1cccc(-c2nnnn2C)c1)[C@@H](O)CN(CCCc1ccc(F)cc1)CC(F)(F)F` yielded an IC50 [1] of 59 nM.
`C[C@@H](NC(=O)Nc1cccc(-c2nnnn2C)c1)[C@@H](O)CN(CCCc1ccc(F)cc1)CC1CC1` gave an IC50 [1] of 0.4 nM and an Activity [4] of 44%.
`CCc1cc(NC(=O)N[C@H](C)[C@@H](O)CN(CCCc2ccc(F)cc2)Cc2ccccc2)cc(-c2nnnn2C)c1` gave an Activity [2] of 61%, an Activity [5] of 9% and an IC50 [1] of 2.5 nM.
`C[C@@H](NC(=O)Nc1cccc(-c2nnnn2C)c1)[C@@H](O)CN1CCC[C@@H](Cc2ccc(F)cc2)C1` showed an IC50 [1] of 0.3 nM and an IC50 [6] of 0.4 nM.
For `CCc1cc(NC(=O)N[C@H](C)[C@@H](O)CN(CC)CCCc2ccc(F)cc2)cc(-c2nnnn2C)c1` (stereo in doubt; 5Et), the IC50 ([1]; cho) was 0.4 nM.
With `CCc1cc(NC(=O)N[C@H](C)[C@@H](O)CN(CCCc2ccc(F)cc2)S(C)(=O)=O)cc(-c2nnnn2C)c1` the IC50 [1] was 21.6 nM.
Work on `CCc1cc(NC(=O)N[C@H](C)[C@@H](O)CN(CC)CCCc2ccc(F)cc2)cc(-c2nnnn2C)c1` (stereo in doubt; 5b) yielded an IC50 [1] of 0.4 nM.
